“And” between values parts separate entries of the source, which are not always exact repeats. Equal entries are not always repeated. Where two headings read alike, the source gives them in different places. Marks after values point to notes of the source that are not given here.
Legend:
[1] = tested on: MRSA 01, MRSA 15, MRSA 16; assay: Mutational frequency evaluation, Example 1; type: cell-based, Staphylococcus aureus; details: for Resistance mutation rate at MIC × 1: tested against one strain: MRSA 01; for mutational frequency at MIC×1: text summary of Table 4
Procedure: Adequate dilutions were plated on plates without the compound.
Viable cell growth was enumerated after 48 hours of incubation at 37° C.
Ten replicates were carried out for each strain and fusidic acid, mupirocin and retapamulin were used as controls for the MRSA 01 strain.

[2] = cited from earlier work; for LD50 rats p.o: Table 3
[3] = tested on: S. aureus strains; assay: Minimum Inhibitory Concentration (MIC) assay, Example 1, S. aureus strains; type: cell-based; details: Staphylococcus aureus, read-out: Mic100 S. aureus
Procedure: (§1) Strains were conserved in Luria Bertani (LB) Broth (S. aureus) or Brain Heart Infusion (BHI) (S. pyogenes) supplemented with glycerol 15% (v/v) at −80° C., and reactivated by isolation on LB (S. aureus) or BHI (S. pyogenes) agar plates. Strains were cultivated in Mueller Hinton (MH) Broth-cation adjusted (S. aureus) supplemented with lysed horse blood 2.5% (v/v) (S. pyogenes). All strains were cultivated at 37° C., aerobically for S. aureus strains.
(§2) Bacterial cultures were stopped in their exponential growth phase and plates were inoculated with the approximate concentration of 10^3 cells per well. Plates were incubated at 37° C. for 18 hours (S. aureus) or 24 hours (S. pyogenes). Optical density at a wavelength of 600 nm was measured at the end of the incubation time. […] Experiments were performed at least as triplicate biological replicates with all strains.

[4] = tested on: S. pyogenes strains; assay: Minimum Inhibitory Concentration (MIC) assay, Example 1, S. pyogenes strains; type: cell-based, Streptococcus pyogenes; details: Streptococcus pyogenes, read-out: Mic100 S. pyogenes
Procedure: as §1, §2

[5] = in vivo; cited from earlier work
[6] = cited from earlier work
[7] = tested against one strain: S. pyogenes 01

Compound | Resistance mutation rate at MIC × 1 [1] | mutational frequency at MIC×1 [1] | LD50 rats p.o [2] [mg/kg] | LD50 ([2]; rats, p.o.) | MIC ([3]; S. aureus strains) | MIC [4, 7] | safety margin after oral administration [5] | MIC ([3]; tested against one strain: MRSA 01) | LD50 median ([2]; rats, p.o., median of studies) [mg/kg] | MIC ([3]; MRSA) | MIC [4] | LD50 mice p.o ([6]; Table 3) [mg/kg] | LD50 ([6]; mice, p.o.) [mg/kg]
Cc1cc(C(C#N)c2ccc(Cl)cc2)c(Cl)cc1NC(=O)c1cc(I)cc(I)c1O (stereo not drawn) [Closantel, N-[5-chloro-4-[(4-chlorophenyl)cyanomethyl]-2-methylphenyl]-2-hydroxy-3,5-diiodobenzamide] | = 2 × 10^−8* | 2×10^−8 | 300 | 262 to 342 mg/kg | ≤ 1.7 µg/mL and ≤ 2.5 µM | 12.8 µg/mL and 19 µM |  |  |  |  |  |  | 
O=C(Nc1cc(Cl)cc(Cl)c1O)c1c(O)c(Cl)cc(Cl)c1Cl [Oxyclozanide, 3,3′,5,5′,6-pentachloro-2′-hydroxysalicylanilide] |  | 1×10^−7 | 980 to 3500 | 980 to 3519 mg/kg |  | 6.4 µg/mL and 15.9 µM | Low safety margin | 1.6 µg/mL and 4 µM |  |  |  |  | 
O=C(Nc1ccc(Oc2ccc(Cl)cc2)c(Cl)c1)c1cc(I)cc(I)c1O [Rafoxanide, 3′-chloro-4′-(p-chlorophenoxy)-3,5-diiodosalicylanilide] | = 5 × 10^−9* | 5×10^−9 | 1500 | 980->2000 mg/kg |  |  |  |  | > 1490 | 0.8 µg/mL and 1.25 µM | 6.4 µg/mL and 10 µM | 270 | 232 to 300

Source: patent publication US11331327B2, “Antibacterial use of halogenated salicylanilides” (UNION therapeutics A/S, priority 2014, dated 2022)
